The source of these data is PubChem BioAssay AID248 (DTP/NCI, 2004).

Several values for one entry are separate records, joined by “and”; a condition that tells them apart may be missing. Equal entries are not always repeated. Toxic doses and inconclusive results are not listed.

For this assay, the system named is L1210 leukemia ip in BDF1 mice, survival T/C. The assay can be described thus: NCI In Vivo Anticancer Drug Screen. Data for tumor model L1210 Leukemia (intraperitoneal) in B6D2F1 (BDF1) mice. The note with it: endpoint: mean survival time, higher = longer survival. In a few lines: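 Each compound was tested against a transplantable tumor grown in mice. The endpoint was survival, with treated animals benchmarked against vehicle controls as a simple ratio.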

Setting [1] is: dose: 100.0 mg/kg/injection, schedule: Q01DX009 (ip), vehicle: saline with Tween-80.
Setting [2] is: dose: 100.0 mg/kg/injection, schedule: Q04DX003 (ip), vehicle: saline with Tween-80.
The mark [3] stands for this setting: dose: 200.0 mg/kg/injection, schedule: Q01DX009 (ip), vehicle: saline with Tween-80.
Where [4] appears, read: dose: 200.0 mg/kg/injection, schedule: Q04DX003 (ip), vehicle: saline with Tween-80.
Where [5] appears, read: dose: 400.0 mg/kg/injection, schedule: Q01DX009 (ip), vehicle: saline with Tween-80.
Setting [6] is: dose: 400.0 mg/kg/injection, schedule: Q04DX003 (ip), vehicle: saline with Tween-80.
[7] abbreviates: dose: 100.0 mg/kg/injection, schedule: Q04DX003 (ip), vehicle: Klucel (hydroxypropylcellulose) (HPC).
Where [8] appears, read: dose: 200.0 mg/kg/injection, schedule: Q04DX003 (ip), vehicle: Klucel (hydroxypropylcellulose) (HPC).
Where [9] appears, read: dose: 25.0 mg/kg/injection, schedule: Q01DX009 (ip), vehicle: Klucel (hydroxypropylcellulose) (HPC).
The mark [10] stands for this setting: dose: 100.0 mg/kg/injection, schedule: Q01DX009 (ip), vehicle: Klucel (hydroxypropylcellulose) (HPC).
Setting [11] is: dose: 200.0 mg/kg/injection, schedule: Q01DX009 (ip), vehicle: Klucel (hydroxypropylcellulose) (HPC).
[12] abbreviates: dose: 400.0 mg/kg/injection, schedule: Q01DX009 (ip), vehicle: Klucel (hydroxypropylcellulose) (HPC).

Regarding `CNC(=S)N/N=C(\c1ccccc1)c1ccccn1`, the T/C by setting is: (dose: 100.0 mg/kg/injection, schedule: Q01DX001 (ip), vehicle: saline with Tween-80) 95 % of control; under setting [1], 100 % of control; under setting [2], 104 % of control; (dose: 200.0 mg/kg/injection, schedule: Q01DX001 (ip), vehicle: saline with Tween-80) 106 % of control; under setting [3], 102 % of control; under setting [4], 95 % of control. For the same compound, the T/C (dose: 400.0 mg/kg/injection, schedule: Q01DX001 (ip), vehicle: saline with Tween-80) is 104 % of control; the T/C under setting [5] was 102 % of control; the T/C under setting [6] is 98 % of control.

In the case of `CC(C)CCC[C@@H](C)[C@H]1CC[C@H]2[C@@H]3CC=C4C(C)(C)C(=O)CC[C@]4(C)[C@H]3CC[C@]12C`, the T/C reads like this: (dose: 100.0 mg/kg/injection, schedule: Q01DX001 (sc), vehicle: steriod suspending solution) 97 % of control; (dose: 200.0 mg/kg/injection, schedule: Q01DX001 (sc), vehicle: steriod suspending solution) 98 % of control; (dose: 400.0 mg/kg/injection, schedule: Q01DX001 (sc), vehicle: steriod suspending solution) 97 % of control.

Turning to `Cc1ccccc1OS(=O)(=O)c1ccccc1[N+](=O)[O-]`, the T/C was 103 % of control under setting [1]; 95 % of control under setting [7]; 90 % of control under setting [3]; 104 % of control under setting [8]; 108 % of control under setting [5]; 90 % of control (dose: 400.0 mg/kg/injection, schedule: Q04DX003 (ip), vehicle: Klucel (hydroxypropylcellulose) (HPC)).

Turning to `NNc1ccc2cccc(O)c2n1`, the T/C by setting is: (dose: 100.0 mg/kg/injection, schedule: Q01DX001 (ip), vehicle: carboxymethylcellulose (CMC)) 90 % of control; (dose: 200.0 mg/kg/injection, schedule: Q01DX001 (ip), vehicle: carboxymethylcellulose (CMC)) 93 % of control.

Regarding `COc1cccc(OC#N)c1OC`, the T/C was 93 % of control (dose: 12.5 mg/kg/injection, schedule: Q01DX001 (ip), vehicle: Klucel (hydroxypropylcellulose) (HPC)); 95 % of control (dose: 12.5 mg/kg/injection, schedule: Q01DX009 (ip), vehicle: Klucel (hydroxypropylcellulose) (HPC)); 96 % of control (dose: 12.5 mg/kg/injection, schedule: Q04DX003 (ip), vehicle: Klucel (hydroxypropylcellulose) (HPC)); 98 % of control (dose: 25.0 mg/kg/injection, schedule: Q01DX001 (ip), vehicle: Klucel (hydroxypropylcellulose) (HPC)); 97 % of control under setting [9]; 104 % of control (dose: 25.0 mg/kg/injection, schedule: Q04DX003 (ip), vehicle: Klucel (hydroxypropylcellulose) (HPC)). Besides, the T/C (dose: 50.0 mg/kg/injection, schedule: Q01DX001 (ip), vehicle: Klucel (hydroxypropylcellulose) (HPC)) was 93 % of control and the T/C (dose: 50.0 mg/kg/injection, schedule: Q04DX003 (ip), vehicle: Klucel (hydroxypropylcellulose) (HPC)) was 94 % of control.

Consider `CCC(C)c1cc([N+](=O)[O-])cc([N+](=O)[O-])c1SC(=O)N(C)C` (centres undefined), for which the T/C under setting [10] is 94 % of control, the T/C under setting [11] was 97 % of control and the T/C under setting [12] is 100 % of control.

Regarding `CC(=O)Nc1ccc(C(=O)N=C(C2CCCC2)N2CCCC2)cc1`, the T/C runs as follows: (dose: 100.0 mg/kg/injection, schedule: Q01DX001 (ip), vehicle: saline) 96 % of control; (dose: 200.0 mg/kg/injection, schedule: Q01DX001 (ip), vehicle: saline) 100 % of control; (dose: 400.0 mg/kg/injection, schedule: Q01DX001 (ip), vehicle: saline) 105 % of control.

In the case of `[CH3][Pb]([CH3])([CH3])[O]P(=O)(O)c1ccccc1`, the T/C by setting is: (dose: 3.12 mg/kg/injection, schedule: Q04DX002 (ip), vehicle: saline) 98 % of control; (dose: 6.25 mg/kg/injection, schedule: Q04DX002 (ip), vehicle: saline) 103 % of control; (dose: 12.5 mg/kg/injection, schedule: Q04DX002 (ip), vehicle: saline) 98 % of control and 101 % of control.

Regarding `Nc1ncn(C2OC(CO)C(O)C2O)n1` (centres undefined), the T/C runs as follows: (dose: 100.0 mg/kg/injection, schedule: Q01DX005 (ip), vehicle: saline) 105 % of control; (dose: 200.0 mg/kg/injection, schedule: Q01DX005 (ip), vehicle: saline) 103 % of control.

As to `CCCCCCCCCCCCCCCCCC(=O)N1C(=O)c2ccccc2C1=O`, the T/C runs as follows: (dose: 100.0 mg/kg/injection, schedule: Q01DX001 (ip), vehicle: other) 87 % of control; (dose: 200.0 mg/kg/injection, schedule: Q01DX001 (ip), vehicle: other) 88 % of control; (dose: 400.0 mg/kg/injection, schedule: Q01DX001 (ip), vehicle: other) 92 % of control.

With `CCN(CC)CC(=O)Nc1cccc2c1C(=O)c1c(c(O)c3ccccc3c1O)C2=O`, the T/C was 94 % of control (dose: 50.0 mg/kg/injection, schedule: Q01DX009 (ip), vehicle: saline with Tween-80); 103 % of control under setting [1]; 101 % of control under setting [2]; 98 % of control under setting [3]; 155 % of control under setting [4]; 102 % of control under setting [6].

Take `NNC(=O)CCC(=O)NN`: the T/C is, setting by setting: under setting [1], 100 % of control; under setting [3], 99 % of control; under setting [5], 100 % of control.

As to `COc1cc2ccnc(C(OC(=O)c3ccccc3)c3ccc(OCc4ccccc4)cc3)c2cc1OC` (centres undefined), the T/C reads like this: under setting [2], 95 % of control; under setting [4], 88 % of control; under setting [6], 95 % of control.

On to `O=C(O)c1cnc[nH]1`, for which the T/C was 100 % of control under setting [10], 92 % of control under setting [11] and 94 % of control under setting [12].

Regarding `CCC(C)c1cccc(OP(=O)(CC(C)CC(C)(C)C)Oc2ccccc2C(C)CC)c1` (centres undefined), the T/C by setting is: (dose: 50.0 mg/kg/injection, schedule: Q01DX001 (ip), vehicle: acetone) 94 % of control; (dose: 100.0 mg/kg/injection, schedule: Q01DX001 (ip), vehicle: acetone) 94 % of control; (dose: 200.0 mg/kg/injection, schedule: Q01DX001 (ip), vehicle: acetone) 93 % of control.

On to `CCc1cc(C(C)=O)c(CC)s1`, for which the T/C reads like this: (dose: 100.0 mg/kg/injection, schedule: Q01DX009 (sc), vehicle: olive oil, sesame oil, peanut oil) 94 % of control; (dose: 100.0 mg/kg/injection, schedule: Q04DX003 (sc), vehicle: olive oil, sesame oil, peanut oil) 104 % of control; (dose: 200.0 mg/kg/injection, schedule: Q01DX009 (sc), vehicle: olive oil, sesame oil, peanut oil) 97 % of control; (dose: 200.0 mg/kg/injection, schedule: Q04DX003 (sc), vehicle: olive oil, sesame oil, peanut oil) 100 % of control; (dose: 400.0 mg/kg/injection, schedule: Q01DX009 (sc), vehicle: olive oil, sesame oil, peanut oil) 104 % of control; (dose: 400.0 mg/kg/injection, schedule: Q04DX003 (sc), vehicle: olive oil, sesame oil, peanut oil) 109 % of control.

For the compound `O=C1c2ccccc2C(=O)N1c1c2ccccc2cc2ccccc12`, the T/C was 98 % of control (dose: 100.0 mg/kg/injection, schedule: Q04DX003 (ip), vehicle: saline sonified); 95 % of control (dose: 200.0 mg/kg/injection, schedule: Q04DX003 (ip), vehicle: saline sonified); 95 % of control (dose: 400.0 mg/kg/injection, schedule: Q04DX003 (ip), vehicle: saline sonified).

`CCN(CC)CC(OC)C(COC)OC(=O)C(c1ccccc1)c1ccccc1` (centres undefined): the T/C reads like this: (dose: 13.0 mg/kg/injection, schedule: Q01DX Z (ip), vehicle: saline) 105 % of control; (dose: 20.0 mg/kg/injection, schedule: Q01DX Z (ip), vehicle: saline) 98 % of control; (dose: 30.0 mg/kg/injection, schedule: Q01DX Z (ip), vehicle: saline) 102 % of control.

Regarding `O=c1sc(=S)[nH]c2ccccc12`, the T/C runs as follows: under setting [7], 88 % of control; under setting [8], 93 % of control.

Turning to `Clc1ccc(Cl)c(NNc2cc(Cl)ccc2Cl)c1`, the T/C is, setting by setting: under setting [9], 114 % of control; (dose: 50.0 mg/kg/injection, schedule: Q01DX009 (ip), vehicle: Klucel (hydroxypropylcellulose) (HPC)) 98 % of control; under setting [10], 96 % of control and 92 % of control; under setting [7], 98 % of control; under setting [8], 101 % of control.
